Experimental findings from patent US11446287B2, “Compounds and methods for EP300 or CBP modulation and indications therefor” (Opna Immuno-Oncology SA, priority 2019, dated 2022) are described below.

The assay deals with T1, Recombinant human EP300 containing the bromodomain (EP300-BD (1040-1161)) (Homo sapiens, UniProt Q09472).
T1 construct: Recombinant human EP300 bromodomain (EP300-BD (1040-1161)); made in house; host or cells: E. coli BL21-CodonPlus (DE3), modified pET vector
T1 sequence (Q09472 1040-1161): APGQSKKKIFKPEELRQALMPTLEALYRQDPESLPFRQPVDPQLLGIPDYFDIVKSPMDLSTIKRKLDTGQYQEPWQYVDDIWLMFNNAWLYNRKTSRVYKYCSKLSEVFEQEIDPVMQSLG
Nature of the assay: EP300 Alphascreen binding assay. In a few lines:
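Displacement of a biotinylated acetyl-K56 histone H3 peptide from the N-His bromodomain construct (1040-1161) measured by AlphaScreen proximity, beads at 7.5 μg/ml final, read 60 min after addition. Protein, peptide and compound first incubated 1 h at room temperature, pH 7.5 HEPES buffer; IC50 by four-parameter logistic fit.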

By IC50 is commonly meant the concentration at which inhibition is half-maximal. As to `Cc1noc(C)c1-c1cnc2c(c1)c(-c1ccc(C(=O)O)cc1OC(F)(F)F)cn2CC1CC(F)(F)C1` [P-0157, 4-(1-((3,3-difluorocyclobutyl)methyl)-5-(3,5-dimethylisoxazol-4-yl)-1H-pyrrolo[2,3-b]pyridin-3-yl)-3-(trifluoromethoxy)benzoic acid], the concentration for half-maximal inhibition (IC50) was in the range of 0.1 to 1000 nM.

On to `Cc1noc(C)c1-c1cnc2c(c1)c(-c1ccc(C(=O)O)cc1OC(F)(F)F)cn2-c1ccccn1` [P-0158, 4-(5-(3,5-dimethylisoxazol-4-yl)-1-(pyridin-2-yl)-1H-pyrrolo[2,3-b]pyridin-3-yl)-3-(trifluoromethoxy)benzoic acid], for which the IC50 lay within 0.1 to 1000 nM.

For `Cc1noc(C)c1-c1cnc2c(Cc3ccccn3)cn(-c3ccc(C(=O)O)cc3OC(F)(F)F)c2c1` [P-0159, 4-(6-(3,5-dimethylisoxazol-4-yl)-3-(pyridin-2-ylmethyl)-1H-pyrrolo[3,2-b]pyridin-1-yl)-3-(trifluoromethoxy)benzoic acid], the IC50 fell in the range of 0.1 to 1000 nM.

For the molecule `Cc1noc(C)c1-c1cnc2c(-c3cnn(C)c3)c(C(F)(F)F)n([C@@H](C)c3ccccn3)c2c1` [P-0160, (S)-3,5-dimethyl-4-(3-(1-methyl-1H-pyrazol-4-yl)-1-(1-(pyridin-2-yl)ethyl)-2-(trifluoromethyl)-1H-pyrrolo[3,2-b]pyridin-6-yl)isoxazole], the IC50 is 0.1 to 1000 nM.

On to `Cc1noc(C)c1-c1cnc2c(-c3cccc(CC(=O)O)c3)c(C(F)(F)F)n([C@@H](C)c3ccccn3)c2c1` [P-0161, (S)-2-(3-(6-(3,5-dimethylisoxazol-4-yl)-1-(1-(pyridin-2-yl)ethyl)-2-(trifluoromethyl)-1H-pyrrolo[3,2-b]pyridin-3-yl)phenyl)acetic acid], for which the IC50 lay within 0.1 to 1000 nM.

In the case of `Cc1noc(C)c1-c1cnc2c(-c3cccc(C(=O)O)c3)c(C(F)(F)F)n([C@@H](C)c3ccccn3)c2c1` [P-0162, (S)-3-(6-(3,5-dimethylisoxazol-4-yl)-1-(1-(pyridin-2-yl)ethyl)-2-(trifluoromethyl)-1H-pyrrolo[3,2-b]pyridin-3-yl)benzoic acid], the half-inhibitory concentration (IC50) lay in the range of 0.1 to 1000 nM.

With `Cc1noc(C)c1-c1cnc2c(C(O)(C3CC3)C3CC3)cn(-c3ccc(C(=O)O)cc3OC(F)(F)F)c2c1` [P-0163, 4-(3-(dicyclopropyl(hydroxy)methyl)-6-(3,5-dimethylisoxazol-4-yl)-1H-pyrrolo[3,2-b]pyridin-1-yl)-3-(trifluoromethoxy)benzoic acid], the IC50 fell in the range of 0.1 to 1000 nM.

As to `Cc1noc(C)c1-c1cnc2c(-c3cc(C(=O)O)ccc3Cl)cn(C(C)(c3ccccn3)c3ccccn3)c2c1` [P-0164, 4-chloro-3-(1-(1,1-di(pyridin-2-yl)ethyl)-6-(3,5-dimethylisoxazol-4-yl)-1H-pyrrolo[3,2-b]pyridin-3-yl)benzoic acid], the IC50 was 0.1 to 1000 nM.

Consider `CCOc1cc(C(=O)O)cc(OCC)c1-n1cc(C(O)(C2CC2)C2CC2)c2ncc(-c3c(C)noc3C)cc21` [P-0165, 4-(3-(dicyclopropyl(hydroxy)methyl)-6-(3,5-dimethylisoxazol-4-yl)-1H-pyrrolo[3,2-b]pyridin-1-yl)-3,5-diethoxybenzoic acid], for which the half-maximal inhibitory concentration (IC50) fell in the range of 0.1 to 1000 nM.

As to `Cc1noc(C)c1-c1cnc2c(-c3cc(C(=O)O)ccc3C#N)cn(C(C)(c3ccccn3)c3ccccn3)c2c1` [P-0166, 4-cyano-3-(1-(1,1-di(pyridin-2-yl)ethyl)-6-(3,5-dimethylisoxazol-4-yl)-1H-pyrrolo[3,2-b]pyridin-3-yl)benzoic acid], the half-inhibitory concentration (IC50) was in the range of 0.1 to 1000 nM.

In the case of `C#Cc1ccccc1-c1cn(C(C)(c2ccccn2)c2ccccn2)c2cc(-c3c(C)noc3C)cnc12` [P-0167, 4-(1-(1,1-di(pyridin-2-yl)ethyl)-3-(2-ethynylphenyl)-1H-pyrrolo[3,2-b]pyridin-6-yl)-3,5-dimethylisoxazole], the IC50 is 0.1 to 1000 nM.

`CCOc1cc(C(=O)O)cc(OCC)c1-n1cc(-c2ccccc2)c2ncc(-c3c(C)noc3C)cc21` [P-0168, 4-(6-(3,5-dimethylisoxazol-4-yl)-3-phenyl-1H-pyrrolo[3,2-b]pyridin-1-yl)-3,5-diethoxybenzoic acid]: the IC50 is 0.1 to 1000 nM.

Turning to `Cc1noc(C)c1-c1cnc2c(-c3ccccc3C#N)cn(C(C)(c3ccccn3)c3ccccn3)c2c1` [P-0169, 2-(1-(1,1-di(pyridin-2-yl)ethyl)-6-(3,5-dimethylisoxazol-4-yl)-1H-pyrrolo[3,2-b]pyridin-3-yl)benzonitrile], the IC50 lay within 0.1 to 1000 nM.
